Reference: ChEMBL document CHEMBL1129088, “Synthesis and antitumor activity of novel duocarmycin derivatives” (Bioorg Med Chem Lett, 1996)

Assays:
Mus musculus [1] = assay: Compound was evaluated in vivo for the antitumor activity against murine sarcoma 180 cell lines at the specified dose 4.0 mg/kg; type: functional
Mus musculus [2] = assay: Compound was evaluated in vivo for the antitumor activity against murine sarcoma 180 cell lines at the specified dose 8.0 mg/kg; type: functional
Mus musculus [3] = assay: Compound was evaluated in vivo for the antitumor activity against murine sarcoma 180 cell lines at the specified dose 16 mg/kg; type: functional
HeLa = assay: In vitro cytotoxicity against HeLaS3 cell lines.; type: functional, cell-based; details: Homo sapiens
Mus musculus [4] = assay: Compound was evaluated in vivo for the antitumor activity against murine sarcoma 180 cell lines at the specified dose 0.25 mg/kg; type: functional
Mus musculus [5] = assay: Compound was evaluated in vivo for the antitumor activity against murine sarcoma 180 cell lines at the specified dose 2.0 mg/kg; type: functional
Mus musculus [6] = assay: Compound was evaluated in vivo for the antitumor activity against murine sarcoma 180 cell lines at the specified dose 0.5 mg/kg; type: functional
Mus musculus [7] = assay: Compound was evaluated in vivo for the antitumor activity against murine sarcoma 180 cell lines at the specified dose 1.0 mg/kg; type: functional
Mus musculus [8] = assay: Compound was evaluated in vivo for the antitumor activity against murine sarcoma 180 cell lines at the specified dose 1 mg/kg; type: functional

SMILES | T/C (Mus musculus [1]) | T/C (Mus musculus [2]) | T/C (Mus musculus [3]) | IC50 (HeLa) | T/C (Mus musculus [4]) | T/C (Mus musculus [5]) | T/C (Mus musculus [6]) | T/C (Mus musculus [7]) | T/C (Mus musculus [8])
COC(=O)[C@]1(C)Nc2c(OC(=O)N(C)C)cc3c(c2C1=O)[C@H](CBr)CN3C(=O)/C=C/c1ccc(OC)cc1 | 0.19 | 0.14 | 0.057 | 510 nM | – | – | – | – | –
COC(=O)[C@]1(C)Nc2c(O)cc3c(c2C1=O)[C@H](CBr)CN3C(=O)c1cc2cc(OC)c(OC)c(OC)c2[nH]1 | – | – | – | 0.028 nM | 0.024 | – | – | – | –
COC(=O)Nc1ccc2[nH]c(C(=O)N3C[C@@H](CBr)c4c3cc(OC(=O)N(C)C)c3c4C(=O)[C@](C)(C(=O)OC)N3)cc2c1 | 0.13 | – | – | 584 nM | – | 0.31 | – | – | –
COC(=O)[C@]1(C)Nc2c(OC(=O)N(C)C)cc3c(c2C1=O)[C@H](CBr)CN3C(=O)c1cc2cc(OC)ccc2o1 | – | – | – | 400 nM | – | – | 0.26 | 0.13 | –
COC(=O)[C@]1(C)Nc2c(OC(=O)N(C)C)cc3c(c2C1=O)[C@H](CBr)CN3C(=O)COc1ccc(OC)cc1 | 0.24 | 0.16 | 0.076 | 98 nM | – | – | – | – | –
COC(=O)[C@@]1(C)C(=O)c2c3c(cc(O)c2N1C(=O)N(C)C)N(C(=O)c1cc2cc(OC)c(OC)c(OC)c2[nH]1)C[C@H]3CBr | – | – | – | 56 nM | 0.31 | – | 0.13 | – | 0.087
CNc1ccc(/C=C/C(=O)N2C[C@@H](CBr)c3c2cc(OC(=O)N(C)C)c2c3C(=O)[C@](C)(C(=O)OC)N2)cc1 | 0.18 | 0.1 | 0.055 | 720 nM | – | – | – | – | –
